Like-named read-outs stand apart in the source and are kept apart here.
How the values were obtained:
Format in all cases: cell-based
M1 muscarinic receptor = molecular target: T1, M1 muscarinic receptor (Homo sapiens, UniProt P11229); assay: Functional mobilization of intracellular calcium (FLIPR) in CHO cells expressing M1; details: for M1 Activity: CHO cells expressing M1, FLIPR calcium assay; for Emax: CHO; for EC50: CHO cells expressing M1, FLIPR calcium
T1 construct: expressed in transfected cells; host or cells: CHO (M1-CHO)
T1 sequence (P11229 1-460): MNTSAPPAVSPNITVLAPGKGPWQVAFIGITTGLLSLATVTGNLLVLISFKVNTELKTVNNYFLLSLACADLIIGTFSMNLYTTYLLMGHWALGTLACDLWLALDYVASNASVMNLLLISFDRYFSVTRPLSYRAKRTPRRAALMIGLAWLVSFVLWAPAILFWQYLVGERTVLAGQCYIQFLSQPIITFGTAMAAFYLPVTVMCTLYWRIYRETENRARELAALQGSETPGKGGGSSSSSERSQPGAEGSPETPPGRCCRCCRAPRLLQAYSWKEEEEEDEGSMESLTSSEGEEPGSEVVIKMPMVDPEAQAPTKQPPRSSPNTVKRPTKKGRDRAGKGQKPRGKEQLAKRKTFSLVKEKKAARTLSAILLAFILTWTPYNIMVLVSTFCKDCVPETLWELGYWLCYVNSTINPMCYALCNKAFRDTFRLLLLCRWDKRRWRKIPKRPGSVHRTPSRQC
How it was run: (§1)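 Recombinant CHO cells loaded with Fluo-3 AM or Calcium 3 dye in pH 7.4 buffer containing 1 mM probenecid, with 0.5% final DMSO. For agonism, compound is added directly. For inhibition, it is preincubated 15 min, or co-applied, before carbachol at EC80. FLIPR fluorescence (ex 488, em 540 nm) is recorded for 60 s.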

M2 muscarinic receptor = molecular target: T2, M2 muscarinic receptor (Homo sapiens, UniProt P08172); assay: Functional mobilization of intracellular calcium (FLIPR) in CHO cells expressing M2; details: for M2 Activity: CHO cells expressing M2, FLIPR calcium assay; for Emax: CHO; for EC50: CHO cells expressing M2, FLIPR calcium
T2 construct: expressed in transfected cells; host or cells: CHO (M2-CHO)
T2 sequence (P08172 1-466): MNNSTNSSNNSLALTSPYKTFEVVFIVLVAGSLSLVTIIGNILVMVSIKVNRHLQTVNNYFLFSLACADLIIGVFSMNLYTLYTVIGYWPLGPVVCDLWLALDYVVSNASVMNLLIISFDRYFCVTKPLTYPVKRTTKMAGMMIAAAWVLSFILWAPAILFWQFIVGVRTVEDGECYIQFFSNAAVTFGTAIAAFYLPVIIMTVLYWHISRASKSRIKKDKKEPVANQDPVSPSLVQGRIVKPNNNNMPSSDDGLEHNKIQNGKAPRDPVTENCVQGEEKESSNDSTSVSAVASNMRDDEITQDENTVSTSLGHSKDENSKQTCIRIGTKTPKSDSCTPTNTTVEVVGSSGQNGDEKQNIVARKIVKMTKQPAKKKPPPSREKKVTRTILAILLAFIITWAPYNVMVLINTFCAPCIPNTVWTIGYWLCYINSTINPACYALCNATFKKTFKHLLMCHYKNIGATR
How it was run: as §1

M3 muscarinic receptor = molecular target: T3, M3 muscarinic receptor (Homo sapiens, UniProt P20309); assay: Functional mobilization of intracellular calcium (FLIPR) in CHO cells expressing M3; details: for M3 Activity: CHO cells expressing M3, FLIPR calcium assay; for Emax: CHO; for EC50: CHO cells expressing M3, FLIPR calcium
T3 construct: expressed in transfected cells; host or cells: CHO (M3-CHO)
T3 sequence (P20309 whole entry): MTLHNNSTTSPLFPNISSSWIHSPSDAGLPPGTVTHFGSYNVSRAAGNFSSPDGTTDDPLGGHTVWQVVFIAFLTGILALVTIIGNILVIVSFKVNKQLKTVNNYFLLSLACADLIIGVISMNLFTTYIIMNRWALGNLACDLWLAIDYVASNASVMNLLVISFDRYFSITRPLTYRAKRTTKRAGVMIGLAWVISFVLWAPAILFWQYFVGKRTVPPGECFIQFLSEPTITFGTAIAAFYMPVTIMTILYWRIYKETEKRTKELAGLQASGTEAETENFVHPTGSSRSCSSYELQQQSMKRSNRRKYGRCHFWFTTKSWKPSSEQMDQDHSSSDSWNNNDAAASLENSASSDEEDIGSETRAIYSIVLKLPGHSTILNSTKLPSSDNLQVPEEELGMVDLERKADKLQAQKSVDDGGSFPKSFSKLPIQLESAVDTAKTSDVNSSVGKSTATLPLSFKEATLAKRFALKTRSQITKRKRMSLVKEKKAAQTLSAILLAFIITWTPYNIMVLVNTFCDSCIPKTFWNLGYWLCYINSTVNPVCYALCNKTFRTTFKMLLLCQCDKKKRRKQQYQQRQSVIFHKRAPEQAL
How it was run: as §1

M4 muscarinic receptor = molecular target: T4, M4 muscarinic receptor (Homo sapiens, UniProt P08173); assay: Functional mobilization of intracellular calcium (FLIPR) in CHO cells expressing M4; details: for M4 Activity: CHO cells expressing M4, FLIPR calcium assay; for Emax: CHO; for EC50: CHO cells expressing M4, FLIPR calcium
T4 construct: expressed in transfected cells; host or cells: CHO (M4-CHO)
T4 sequence (P08173 1-479): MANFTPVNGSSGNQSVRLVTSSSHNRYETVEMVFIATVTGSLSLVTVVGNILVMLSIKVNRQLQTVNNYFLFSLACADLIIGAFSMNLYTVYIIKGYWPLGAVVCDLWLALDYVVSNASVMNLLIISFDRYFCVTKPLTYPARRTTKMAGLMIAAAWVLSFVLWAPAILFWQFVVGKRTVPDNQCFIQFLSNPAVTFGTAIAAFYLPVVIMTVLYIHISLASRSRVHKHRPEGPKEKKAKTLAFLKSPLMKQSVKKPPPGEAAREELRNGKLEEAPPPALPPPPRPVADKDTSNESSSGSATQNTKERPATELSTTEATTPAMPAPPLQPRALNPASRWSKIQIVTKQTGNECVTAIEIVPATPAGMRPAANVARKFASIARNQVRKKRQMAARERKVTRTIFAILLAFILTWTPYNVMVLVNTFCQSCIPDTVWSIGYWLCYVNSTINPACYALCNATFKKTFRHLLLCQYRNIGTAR
How it was run: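 Read-out: FLIPR fluorescence (ex 488, em 540 nm) over 60 s. Recombinant CHO lines are dye-loaded (Fluo-3 AM or Calcium 3) with 1 mM probenecid. For antagonist mode, compound is pre-incubated 15 min, or co-applied, then carbachol is added at 3× EC80 per subtype.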

[1] = 100% efficacy = maximum response obtained with the Carbachol control
[2] = 100% = maximum response obtained with the Carbachol control, read-out: M1 Efficacy
[3] = 100% = maximum response obtained with the Carbachol control, read-out: M2 Efficacy
[4] = 100% = maximum response obtained with the Carbachol control, read-out: M3 Efficacy
[5] = 100% = maximum response obtained with the Carbachol control, read-out: M4 Efficacy

Row | SMILES | M1 Activity (M1 muscarinic receptor) | Emax (M1 muscarinic receptor; [1]) | M2 Activity (M2 muscarinic receptor) | Emax (M2 muscarinic receptor; [1]) | M3 Activity (M3 muscarinic receptor) | Emax (M3 muscarinic receptor; [1]) | M4 Activity (M4 muscarinic receptor) | Emax (M4 muscarinic receptor; [1]) | EC50 (M1 muscarinic receptor) | Emax (M1 muscarinic receptor; [2]) | EC50 (M2 muscarinic receptor) | Emax (M2 muscarinic receptor; [3]) | EC50 (M3 muscarinic receptor) | Emax (M3 muscarinic receptor; [4]) | EC50 (M4 muscarinic receptor) | Emax (M4 muscarinic receptor; [5])
1 | CC(C)COC(=O)N(C)[C@H]1CCC2(CCN(CCC(C)(C)C)CC2)c2ccccc21 [compound 208] | +++ (activity was measured to be less than 2.0 μM) | 25 to 100% | +++ (activity was measured to be less than 2.0 μM) | < 25% | + (activity was measured to be greater than 5.0 μM) | < 25% | +++ (activity was measured to be less than 2.0 μM) | 25 to 100% |  |  |  |  |  |  |  | 
2 | CC(C)(C)CCN1CCC2(CC[C@H](NC(=O)CN3CCCCCC3=O)c3ccccc32)CC1 [compound 71] |  |  |  |  |  |  |  |  | < 2 µM | 25 to 100% | < 2 µM | 25 to 100% | > 5 µM | < 25% | < 2 µM | 25 to 100%
3 | CC(=O)NC(C(=O)N[C@@H]1CCC2(CCN(CCC(C)(C)C)CC2)c2ccccc21)C(C)C (stereo partly shown) [compound 87] |  |  |  |  |  |  |  |  | > 5 µM | < 25% | > 5 µM | < 25% | > 5 µM | < 25% | < 2 µM | 25 to 100%
4 | CC(=O)N[C@H]1CC2(CCN(CCC(C)C)CC2)c2ccccc21 [compound 277] | ++ (activity was measured to be from 2.0 μM to 5.0 μM) | 25 to 100% | + (activity was measured to be greater than 5.0 μM) | < 25% | + (activity was measured to be greater than 5.0 μM) | < 25% | +++ (activity was measured to be less than 2.0 μM) | 25 to 100% |  |  |  |  |  |  |  | 
5 | CC(=O)NCC(=O)N[C@@H]1CCC2(CCN(CCC(C)(C)C)CC2)c2cc(F)ccc21 [compound 200] | +++ (activity was measured to be less than 2.0 μM) | 25 to 100% | +++ (activity was measured to be less than 2.0 μM) | 25 to 100% | + (activity was measured to be greater than 5.0 μM) | < 25% | +++ (activity was measured to be less than 2.0 μM) | 25 to 100% |  |  |  |  |  |  |  | 
6 | CC(C)(C)CCN1CCC2(CC[C@H](NC(=O)CCN3CCCC3=O)c3ccc(F)cc32)CC1 [compound 138] |  |  |  |  |  |  |  |  | < 2 µM | 25 to 100% | < 2 µM | 25 to 100% | > 5 µM | < 25% | < 2 µM | 25 to 100%
7 | C/C=C(\C)CN1CCC2(CC1)C[C@H](NC(C)=O)c1ccccc12 [compound 238] | + (activity was measured to be greater than 5.0 μM) | < 25% | + (activity was measured to be greater than 5.0 μM) | < 25% | + (activity was measured to be greater than 5.0 μM) | < 25% | + (activity was measured to be greater than 5.0 μM) | < 25% |  |  |  |  |  |  |  | 
8 | CCN(C(=O)c1cncn1C)[C@@H]1CCC2(CCN(CCC(C)(C)C)CC2)c2ccccc21 [compound 101] |  |  |  |  |  |  |  |  | < 2 µM | 25 to 100% | > 5 µM | < 25% | > 5 µM | < 25% | 2 to 5 µM | 25 to 100%
9 | CC(C)(C)CCN1CCC2(CC[C@H](NC(=O)C3CCOCC3)c3ccccc32)CC1 [compound 209] | +++ (activity was measured to be less than 2.0 μM) | 25 to 100% | + (activity was measured to be greater than 5.0 μM) | < 25% | + (activity was measured to be greater than 5.0 μM) | < 25% | +++ (activity was measured to be less than 2.0 μM) | 25 to 100% |  |  |  |  |  |  |  | 
10 | COC(=O)CCCCCN1CCC2(CC1)C[C@H](NC(C)=O)c1ccccc12 [compound 257] | +++ (activity was measured to be less than 2.0 μM) | > 100% | +++ (activity was measured to be less than 2.0 μM) | 25 to 100% | + (activity was measured to be greater than 5.0 μM) | 25 to 100% | +++ (activity was measured to be less than 2.0 μM) | 25 to 100% |  |  |  |  |  |  |  | 
11 | CC(=O)N[C@H]1CC2(CCN(CCC(C)(C)C)CC2)c2ccc(C)cc21 [compound 253] | + (activity was measured to be greater than 5.0 μM) | < 25% | + (activity was measured to be greater than 5.0 μM) | < 25% | + (activity was measured to be greater than 5.0 μM) | < 25% | + (activity was measured to be greater than 5.0 μM) | 25 to 100% |  |  |  |  |  |  |  | 
12 | CN1CC(C(=O)N[C@@H]2CCC3(CCN(CCC(C)(C)C)CC3)c3ccccc32)CC1=O (stereo partly shown) [compound 25] |  |  |  |  |  |  |  |  | > 5 µM | < 25% | > 5 µM | < 25% | > 5 µM | < 25% | < 2 µM | 25 to 100%
13 | CCN(C(=O)CCC(C)=O)[C@@H]1CCC2(CCN(CCC(C)(C)C)CC2)c2ccccc21 [compound 210] | +++ (activity was measured to be less than 2.0 μM) | < 25% | + (activity was measured to be greater than 5.0 μM) | < 25% | + (activity was measured to be greater than 5.0 μM) | < 25% | +++ (activity was measured to be less than 2.0 μM) | 25 to 100% |  |  |  |  |  |  |  | 
14 | CCOCC(=O)N(CC)[C@H]1CCC2(CCN(CCC(C)(C)C)CC2)c2ccccc21 [compound 140] |  |  |  |  |  |  |  |  | 2 to 5 µM | 25 to 100% | > 5 µM | < 25% | > 5 µM | < 25% | < 2 µM | 25 to 100%
15 | CCN(C(=O)C1CCOCC1)[C@H]1CCC2(CCN(CCC(C)(C)C)CC2)c2ccccc21 [compound 170] |  |  |  |  |  |  |  |  | > 5 µM | < 25% | > 5 µM | < 25% | > 5 µM | < 25% | < 2 µM | 25 to 100%
16 | CC(C)(C)CCN1CCC2(CC[C@@H](NC(=O)C3CCCN(C(=O)C4CC4)C3)c3ccccc32)CC1 (stereo partly shown) [compound 55] |  |  |  |  |  |  |  |  | 2 to 5 µM | < 25% | < 2 µM | < 25% | > 5 µM | < 25% | < 2 µM | 25 to 100%
17 | CC(C)(C)CCN1CCC2(CC[C@@H](NC(=O)[C@@H]3CCC(=O)N3)c3ccc(F)cc32)CC1 [compound 75] |  |  |  |  |  |  |  |  | 2 to 5 µM | 25 to 100% | 2 to 5 µM | < 25% | > 5 µM | < 25% | < 2 µM | 25 to 100%

From patent US8003660B2, “Modulators of muscarinic receptors” (Vertex Pharmaceuticals Incorporated, priority 2006, dated 2011)
